What is called zone of inhibition is the size of the clear area around the sample on an inoculated plate.

Results on six compounds are retold here after article PMC10096344 (Molecules, 2023).

Structures are written as SMILES.

Assay [1] relates to P. aeruginosa PAO1 strain. The arrangement: method as in PMID 21852522. The conditions noted are these: cited from earlier work.
Assay [2] deals with P. aeruginosa (ATCC27853) biofilm. Put plainly: Bacterial biofilm formation (FITC staining, crystal violet staining). Type of assay: cell-based, Pseudomonas aeruginosa. The conditions noted are these: with 10 μg/mL LP4C. The protocol: The bacterial biofilm growth and measurement was performed according to our previously reported method. Briefly, P. aeruginosa (ATCC27853) was cultured in the tube with nutrient broth containing 2% (w/v) glucose, shaken at 220 rpm for 12 h at 37 °C. The suspension was diluted to 1 × 10^6 CFU/mL and added to 96-well plates, the bacteria was cultured for 24 h at 37 °C for biofilm growth and the planktonic bacterial of each well was removed by PBS rinsing three times. To observe the biofilm formation, the fluorescein isothiocyanate (FITC) was added into the plates and incubated for 2 h at 37 °C; the labeled biofilm was then washed by PBS and visualized under the fluorescence microscopy (Olympus CKX53, Tokyo, Japan). The measurement of biofilm was performed according to the following procedure: the mature biofilm was fixed with 150 μL methanol and left to air dry, then stained with 150 μL of 1% (w/v) crystal violet solution for 15 min at room temperature. The plate was rinsed with PBS three times and 150 μL of glacial acetic acid was added to each well; the optical density was measured at 630 nm optical density using a microplate reader (Bio-Tek ELX800, Berten, USA).

For assay [3], the system named is P. aeruginosa (ATCC27853). Briefly: Anti-bacterial activity, inhibition zone diameter on agar. The conditions noted are these: for growth inhibition / bactericidal activity (inhibition zone): reference antibiotic 10 μg/mL. It counts as cell-based, Pseudomonas aeruginosa. The protocol:
P. aeruginosa (ATCC27853) was cultured in 3 mL LB culture medium, shaken at 220 rpm for 12 h at 37 °C and diluted to 1 × 10^6 CFU/mL. The culture disk was coated with 1% agar, and 100 μL bacterial suspension was added to the agar in the disk evenly. […] LP4C or reference antibiotics were then added in each hole. The disk was cultured for 12–16 h at 37 °C; the result was then observed and the inhibition zone diameter was measured.

The mark [4] stands for this setting: supplementation 1, 10 and 100 μM.

For `CC(C)=CC[C@@H](O)C1=CC(=O)c2c(O)ccc(O)c2C1=O` [shikonin], the “concentration that inhibits biofilm formation” value in assay [1] is 200 µM. `O=c1ccn([C@@H]2O[C@H](CO[P@@](=O)(O)O[P@@](=O)(O)OP(=O)(O)O)[C@@H](O)[C@H]2O)c(=O)[nH]1` (stereo in doubt) [UTP, uridine triphosphate, reference compound]: the “reversal of biofilm formation impaired by LP4C” value (“reversal” for short) in assay [2] (setting [4]) was “could reverse the biofilm formation ability impaired by 10 μg/mL LP4C”. Regarding `CC(C)(O/N=C(\C(=O)N[C@@H]1C(=O)N2C(C(=O)[O-])=C(C[n+]3ccccc3)CS[C@H]12)c1csc(N)n1)C(=O)O` [ceftazidime], the “growth inhibition / bactericidal activity (inhibition zone)” value in assay [3] was “no bactericidal activity”. With `C[C@@H](O)[C@H]1C(=O)N2C(C(=O)O)=C(SCCN=CN)C[C@H]12` [imipenem], the zone of inhibition at 10 µg/mL in assay [3] (Pseudomonas aeruginosa, ATCC27853, 10 μg/mL, value printed in Figure 1A) was 29.4 mm. In assay [3], the “growth inhibition / bactericidal activity (inhibition zone)” value is “could inhibit the growth of P. aeruginosa obviously”. As for `O=c1cc[nH]c(=O)[nH]1` [uracil, reference compound], the “reversal” value in assay [2] (supplementation 10 and 100 μM) is “could reverse the biofilm formation ability impaired by 10 μg/mL LP4C”.

Consider `O=c1ccn([C@@H]2O[C@H](COP(=O)(O)O)[C@@H](O)[C@H]2O)c(=O)[nH]1` [UMP, uridine monophosphate, reference compound], for which the “reversal” value in assay [2] (setting [4]) is “could reverse the biofilm formation ability impaired by 10 μg/mL LP4C”.
